From PMC10474815 (Science (New York, N.Y.), 2023)
pKd: −log10 of the molar value.

How the values were obtained:
[1] = system: KRAS^G12C mutant NSCLC PDX models; test: Patient-derived xenograft panel, NSCLC; type: in vivo; conditions: 200 mg/kg orally once daily, 28-day treatment; 19/25 models
KRAS^G12C mutant cells = test: Cancer cell line panel viability, 3D CellTiter-Glo; type: cell-based; conditions: n = 17 G12C, n = 11 non-G12C cell lines
[2] = system: KRAS^G12C mutant CRC PDX models; test: Patient-derived xenograft panel, CRC; type: in vivo; conditions: 200 mg/kg orally once daily, 28-day treatment; 6/15 models
KRAS^G13C = KRAS^G13C (Homo sapiens, UniProt P01116, G13C); test: Activity on RAS variants
GDP-loaded KRAS^G12C = GDP-loaded KRAS^G12C (Homo sapiens, UniProt P01116+P62937, G12C); test: Native PAGE tri-complex formation with GDP-loaded KRAS G12C; type: binding; conditions: KRAS G12C 2 μM, compound 10 μM, CYPA 2 μM
[3] = molecular target: T1, CYPA:RMC-4998:KRAS^G12C tri-complex (Homo sapiens, UniProt P01116+P62937, G12C); test: Tri-complex stability after compound washout, biophysical assays; type: binding
KRAS^G12C = KRAS^G12C (Homo sapiens, UniProt P01116+P62937, G12C); test: Kinetic target engagement assay; type: biochemical; conditions: active KRAS G12C in the presence of CYPA
[4] = molecular target: KRAS^G12C in MIA PaCa-2 cells (Homo sapiens, UniProt P01116+P62937, G12C); test: Covalent modification of KRAS G12C in cells; type: cell-based
[5] = molecular target: T1, CYPA:RMC-4998:KRAS^G12C tri-complex; test: Tri-complex stability after compound washout, cellular experiments; type: cell-based
CYPA = CYPA (Homo sapiens, UniProt P62937); test: Reversible binary complex formation with CYPA; type: binding

Structure (SMILES) | Effect of CYPA loss on cellular activity (CYPA-null H358 cells) | Models with mean tumor regression [1] [%] | Selectivity index (G12C versus non-G12C mutant models) (KRAS^G12C mutant cells) | Tolerability (NCI-H358 xenografts; mouse, in vivo, po) | Tumor response (NCI-H358 xenografts; oral once daily, 28 days) | Duration of KRAS G12C engagement and inhibition of ERK phosphorylation in tumors (NCI-H358 xenografts; single dose) | Models with mean tumor regression [2] [%] | Activity on KRAS G13C (KRAS^G13C) | Complex formation with GDP-loaded KRAS G12C (GDP-loaded KRAS^G12C) | Tri-complex half-life after compound washout [3] | Covalent engagement efficiency kinact/KI (KRAS^G12C) | Time to complete covalent modification of KRAS G12C [4] [min] | Tri-complex half-life after compound washout [5] | koff of binary complex with CYPA (CYPA) [s⁻¹] | pKd (CYPA; read-out: Kd of binary complex with CYPA)
C=C(F)C(=O)N1CCN(c2nc(OC[C@@H]3CCCN3C)nc3c2CCN(c2cccc4cccc(Cl)c24)C3)C[C@@H]1CC#N [adagrasib] | no effect | – | – | – | – | – | – | – | – | – | – | – | – | – | –
CCn1c(-c2cccnc2[C@H](C)OC)c2c3cc(ccc31)N1CCO[C@@H](C[C@H](NC(=O)[C@H](C(C)C)N(C)C(=O)C3(F)CCN(C(=O)C#CC(C)(C)N(C)C)CC3)C(=O)N3CCC[C@H](N3)C(=O)OCC(C)(C)C2)C1 [RMC-6291] | – | 76 | 13,500 times | well tolerated | near complete tumor regression | ~ 24 hours | 40 | – | – | – | – | – | – | – | –
CCn1c(-c2cccnc2[C@H](C)OC)c2c3cc(ccc31)-c1cccc(c1)C[C@H](NC(=O)[C@H](C(C)C)N1CC[C@]3(CCN(C(=O)C#CC(C)(C)N(C)C)C3)C1=O)C(=O)N1CCC[C@H](N1)C(=O)OCC(C)(C)C2 [RMC-4998] | – | – | 1450 times | – | – | – | – | little, if any, activity | No complex was detected | greater than 8 hours | 272,000 M^−1s^−1 | ≤ 5 | greater than 8 hours | 1.0 | 5.96
